Tests used:
[1] = % of radioactivity recovered as M3 in faeces following oral administration of [14C] aliskiren hemifumarate at 100 mg.Kg-1 level in rat; type: ADME, organism-based, Albino HAN:WIST, Feces; settings: in vivo
[2] = % of radioactivity recovered as M3 in plasma following oral administration of [14C] aliskiren hemifumarate at 100 mg.Kg-1 level in rat; type: ADME, organism-based, Albino HAN:WIST; settings: in vivo
[3] = % of radioactivity recovered as M3 in faeces following intravenous administration of [14C] aliskiren hemifumarate at 10 mg.Kg-1 level in rat; type: ADME, organism-based, Albino HAN:WIST, Feces; settings: in vivo
[4] = % aliskiren hemifumarate (0-72h) recovered as M3 in faeces following single oral dose of [14C] aliskiren hemifumarate at 3 mg.Kg-1 level in marmoset; type: ADME, organism-based, Callithrix jacchus, Feces; settings: in vivo
[5] = % of radioactivity recovered as M3 in urine following intravenous administration of [14C] aliskiren hemifumarate at 10 mg.Kg-1 level in rat; type: ADME, organism-based, Albino HAN:WIST; settings: in vivo
[6] = % aliskiren hemifumarate recovered as M3 in urine and faeces following single oral dose of 300 mg [14C]SPP100 studied in healthy men; type: ADME, organism-based, Urine/Feces; settings: human, in vivo, at 300 mg
[7] = % aliskiren recovered as M3 in hydrolysed following single intravenous administration of 10 mg.Kg-1 [14C] aliskiren hemifumarate in male rat; type: ADME, organism-based, HAN:WIST(SPF), Bile; settings: in vivo
[8] = % of radioactivity recovered as M3 in plasma following intravenous administration of [14C] aliskiren hemifumarate at 10 mg.Kg-1 level in rat; type: ADME, organism-based, Albino HAN:WIST; settings: in vivo
[9] = % aliskiren hemifumarate recovered as M3 in faeces following single oral dose of 300 mg [14C]SPP100 studied in healthy men; type: ADME, organism-based, Feces; settings: human, in vivo, at 300 mg
[10] = % aliskiren hemifumarate (0-168h) recovered as M3 in urine following single intravenous dose of [14C] aliskiren hemifumarate at 1 mg.Kg-1 level in marmoset; type: ADME, organism-based, Callithrix jacchus; settings: in vivo
[11] = % aliskiren hemifumarate (0-168h) recovered as M3 in urine following single oral dose of [14C] aliskiren hemifumarate at 3 mg.Kg-1 level in marmoset; type: ADME, organism-based, Callithrix jacchus; settings: in vivo
[12] = % aliskiren recovered as M3 of receiver rat following duodenal infusion of radioactivity through bile from donor rat treated with single intravenous administration of 10 mg.Kg-1 [14C] aliskiren hemifumarate; type: ADME, organism-based, HAN:WIST(SPF); settings: in vivo
[13] = % aliskiren hemifumarate (0-72h) recovered as M3 in faeces following single intravenous dose of [14C] aliskiren hemifumarate at 1 mg.Kg-1 level in marmoset; type: ADME, organism-based, Callithrix jacchus, Feces; settings: in vivo
[14] = % aliskiren recovered as M3 in bile following single intravenous administration of 10 mg.Kg-1 [14C] aliskiren hemifumarate in male rat; type: ADME, organism-based, HAN:WIST(SPF); settings: in vivo
[15] = % of radioactivity recovered as M3 in urine following oral administration of [14C] aliskiren hemifumarate at 100 mg.Kg-1 level in rat; type: ADME, organism-based, Albino HAN:WIST; settings: in vivo
[16] = % aliskiren recovered as M3 in urine following single intravenous administration of 10 mg.Kg-1 [14C] aliskiren hemifumarate in male rat; type: ADME, organism-based, HAN:WIST(SPF); settings: in vivo
[17] = % aliskiren hemifumarate recovered as M3 in urine following single oral dose of 300 mg [14C]SPP100 studied in healthy men; type: ADME, organism-based; settings: human, in vivo, at 300 mg
[18] = % aliskiren hemifumarate (0-72h) recovered as M4 in faeces following single intravenous dose of [14C] aliskiren hemifumarate at 1 mg.Kg-1 level in marmoset; type: ADME, organism-based, Callithrix jacchus, Feces; settings: in vivo
[19] = % of radioactivity recovered as M4 in faeces following intravenous administration of [14C] aliskiren hemifumarate at 10 mg.Kg-1 level in rat; type: ADME, organism-based, Albino HAN:WIST, Feces; settings: in vivo
[20] = % aliskiren hemifumarate recovered as M4 in faeces following single oral dose of 300 mg [14C]SPP100 studied in healthy men; type: ADME, organism-based, Feces; settings: human, in vivo
[21] = % of radioactivity recovered as M4 in faeces following oral administration of [14C] aliskiren hemifumarate at 100 mg.Kg-1 level in rat; type: ADME, organism-based, Albino HAN:WIST, Feces; settings: in vivo
[22] = % aliskiren hemifumarate recovered as M4 in urine and faeces following single oral dose of 300 mg [14C]SPP100 studied in healthy men; type: ADME, organism-based, Urine/Feces; settings: human, in vivo, at 300 mg
[23] = % of radioactivity recovered as M4 in plasma following intravenous administration of [14C] aliskiren hemifumarate at 10 mg.Kg-1 level in rat; type: ADME, organism-based, Albino HAN:WIST; settings: in vivo
[24] = % of radioactivity recovered as M4 in plasma following oral administration of [14C] aliskiren hemifumarate at 100 mg.Kg-1 level in rat; type: ADME, organism-based, Albino HAN:WIST; settings: in vivo
[25] = % aliskiren recovered as M4 in bile following single intravenous administration of 10 mg.Kg-1 [14C] aliskiren hemifumarate in male rat; type: ADME, organism-based, HAN:WIST(SPF); settings: in vivo
[26] = % of radioactivity recovered as M4 in urine following intravenous administration of [14C] aliskiren hemifumarate at 10 mg.Kg-1 level in rat; type: ADME, organism-based, Albino HAN:WIST; settings: in vivo
[27] = % aliskiren recovered as M4 in hydrolysed following single intravenous administration of 10 mg.Kg-1 [14C] aliskiren hemifumarate in male rat; type: ADME, organism-based, HAN:WIST(SPF), Bile; settings: in vivo
[28] = % aliskiren recovered as M4 of receiver rat following duodenal infusion of radioactivity through bile from donor rat treated with single intravenous administration of 10 mg.Kg-1 [14C] aliskiren hemifumarate; type: ADME, organism-based, HAN:WIST(SPF); settings: in vivo
[29] = % aliskiren hemifumarate recovered as M4 in urine following single oral dose of 300 mg [14C]SPP100 studied in healthy men; type: ADME, organism-based; settings: human, in vivo, at 300 mg
[30] = % aliskiren hemifumarate (0-72h) recovered as M4 in faeces following single oral dose of [14C] aliskiren hemifumarate at 3 mg.Kg-1 level in marmoset; type: ADME, organism-based, Callithrix jacchus, Feces; settings: in vivo
[31] = % aliskiren hemifumarate (0-168h) recovered as M4 in urine following single oral dose of [14C] aliskiren hemifumarate at 3 mg.Kg-1 level in marmoset; type: ADME, organism-based, Callithrix jacchus; settings: in vivo
[32] = % of radioactivity recovered as M4 in urine following oral administration of [14C] aliskiren hemifumarate at 100 mg.Kg-1 level in rat; type: ADME, organism-based, Albino HAN:WIST; settings: in vivo
[33] = % aliskiren recovered as M4 in urine following single intravenous administration of 10 mg.Kg-1 [14C] aliskiren hemifumarate in male rat; type: ADME, organism-based, HAN:WIST(SPF); settings: in vivo
[34] = % aliskiren hemifumarate (0-168h) recovered as M4 in urine following single intravenous dose of [14C] aliskiren hemifumarate at 1 mg.Kg-1 level in marmoset; type: ADME, organism-based, Callithrix jacchus; settings: in vivo

Question: What does the source list for COc1ccc(C[C@@H](C[C@H](N)[C@@H](O)C[C@H](C(=O)NCC(C)(C)C(N)=O)C(C)C)C(C)C)cc1OCCCO?
Answer: Compound recovery [1]: <= 2%; Compound recovery [2]: <= 2%; Compound recovery [3]: > 2%; Compound recovery [4]: 2%; Compound recovery [5]: <= 2%; Compound recovery [6]: < 0.6%; Compound recovery [7]: 15.5%; Compound recovery [8]: OUTCOME = Not detected or not investigated; Compound recovery [9]: 0.6%; Compound recovery [10]: 0.4%; Compound recovery [11]: 0.1%; Compound recovery [12]: 15.2%; Compound recovery [13]: 17%; Compound recovery [14]: 15.9%; Compound recovery [15]: <= 2%; Compound recovery [16]: 4.7%; Compound recovery [17]: < 0.1%

Question: With COc1ccc(C[C@@H](C[C@H](N)[C@@H](O)C[C@H](C(=O)NCC(C)(C)C(N)=O)C(C)C)C(C)C)cc1O as the molecule, how does the Compound recovery [18] read?
Answer: Its Compound recovery is 2%.

Question: And the Compound recovery [19]?
Answer: Its Compound recovery is “OUTCOME = Not detected or not investigated”.

Question: What about the Compound recovery [20] of the same molecule?
Answer: The Compound recovery was “OUTCOME = Not detected”.

Question: What about the Compound recovery [21] of the same molecule?
Answer: Its Compound recovery is “<= 2%”.

Question: What about the Compound recovery [22] of the same molecule?
Answer: The Compound recovery was less than 0.1%.

Question: What about the Compound recovery [23] of the same molecule?
Answer: The Compound recovery was “OUTCOME = Not detected or not investigated”.

Question: What about the Compound recovery [24] of the same molecule?
Answer: Its Compound recovery is “<= 2%”.

Question: And the Compound recovery [25]?
Answer: The Compound recovery was 1.4%.

Question: And the Compound recovery [26]?
Answer: Its Compound recovery is “OUTCOME = Not detected or not investigated”.

Question: What about the Compound recovery [27] of the same molecule?
Answer: The Compound recovery was 4.5%.

Question: What about the Compound recovery [28] of the same molecule?
Answer: The Compound recovery was “OUTCOME = Not detected”.

Question: What about the Compound recovery [29] of the same molecule?
Answer: The Compound recovery was less than 0.1%.

Question: And the Compound recovery [30]?
Answer: Its Compound recovery is 1%.

Question: What about the Compound recovery [31] of the same molecule?
Answer: The Compound recovery was 0%.

Question: And the Compound recovery [32]?
Answer: The Compound recovery was “<= 2%”.

Question: What about the Compound recovery [33] of the same molecule?
Answer: Its Compound recovery is 0.9%.

Question: And the Compound recovery [34]?
Answer: Its Compound recovery is 0.1%.

Reference: ChEMBL document CHEMBL3508693 (2016)
